In patent US20230265151A1, “GIP/GLP1 CO-AGONIST COMPOUNDS” (priority 2020, published 2023):
Read-outs that look alike come from different tables or passages of the source.

Legend:
hGIPR = target: T1, hGIPR (Homo sapiens, UniProt P48546); assay: Functional cAMP formation (HTRF) in HEK-293 clonal cells expressing hGIPR, 0.1% bovine casein, without or with 1.0% human serum albumin; assay type: cell-based; details: for EC50: geometric mean
T1 construct: expressed in transfected cells
T1 sequence (P48546 22-466): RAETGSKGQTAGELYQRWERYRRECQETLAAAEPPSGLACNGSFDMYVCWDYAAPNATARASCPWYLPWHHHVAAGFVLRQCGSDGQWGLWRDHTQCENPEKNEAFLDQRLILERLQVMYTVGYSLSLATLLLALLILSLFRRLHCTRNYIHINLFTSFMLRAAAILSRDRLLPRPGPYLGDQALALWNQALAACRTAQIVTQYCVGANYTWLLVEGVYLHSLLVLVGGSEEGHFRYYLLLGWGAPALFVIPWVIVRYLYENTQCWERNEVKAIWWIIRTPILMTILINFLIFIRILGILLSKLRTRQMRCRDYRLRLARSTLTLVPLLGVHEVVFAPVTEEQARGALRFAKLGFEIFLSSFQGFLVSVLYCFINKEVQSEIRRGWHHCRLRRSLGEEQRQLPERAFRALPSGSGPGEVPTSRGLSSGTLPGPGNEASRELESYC
Summary of the method: (§1)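 Cells were stimulated with peptide for 30 min at 37° C, then lysed in buffer carrying cAMP-d2 and anti-cAMP Eu3+-cryptate for a competitive HTRF read after at least 60 min at room temperature. The 665/620 nm ratio was converted to nM cAMP against a standard curve.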

hGCGR = target: T2, hGCGR (Homo sapiens, UniProt P47871); assay: Functional cAMP formation (HTRF) in HEK-293 clonal cells expressing hGCGR, 0.1% bovine casein, without or with 1.0% human serum albumin; assay type: cell-based; details: geometric mean
T2 construct: expressed in transfected cells
T2 sequence (P47871 26-477): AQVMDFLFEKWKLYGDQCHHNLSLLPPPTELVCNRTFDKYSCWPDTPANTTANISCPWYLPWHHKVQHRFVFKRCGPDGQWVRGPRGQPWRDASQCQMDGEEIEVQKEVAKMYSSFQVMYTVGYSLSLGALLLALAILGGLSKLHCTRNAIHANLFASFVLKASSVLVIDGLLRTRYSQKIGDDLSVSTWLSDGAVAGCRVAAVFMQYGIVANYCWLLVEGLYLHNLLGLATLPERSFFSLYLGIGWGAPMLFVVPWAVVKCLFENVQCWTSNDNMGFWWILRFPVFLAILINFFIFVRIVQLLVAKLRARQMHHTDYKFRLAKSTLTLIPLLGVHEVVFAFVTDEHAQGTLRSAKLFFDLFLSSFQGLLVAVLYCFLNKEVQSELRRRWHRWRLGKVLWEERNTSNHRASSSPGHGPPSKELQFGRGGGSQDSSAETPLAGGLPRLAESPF
Summary of the method: as §1

[1] = HEK293, percent of maximal response to GIP(1-42)NH2, 37° C., 0.1% bovine casein, arithmetic mean, read-out: hGIPR Emax, % ± SEM
[2] = cAMP, incubated at 37° C., 0.1% bovine casein (no human serum albumin), read-out: hGCGR EC50, nM (SEM, n)
[3] = HEK293, 0.1% bovine casein and 1.0% human serum albumin, 37° C., percent of maximal response to GIP(1-42)NH2, read-out: hGIPR Emax, % ± SEM
[4] = cAMP, 37° C., 0.1% bovine casein (no human serum albumin), read-out: hGIPR EC50, nM (SEM, n)
[5] = 0.1% bovine casein and 1.0% human serum albumin, 37° C., read-out: hGCGR EC50, nM (SEM, n)
[6] = cAMP, 37° C., 0.1% bovine casein (no human serum albumin), read-out: hGCGR EC50, nM (SEM, n)

Q: CC[C@H](C)[C@H](NC(=O)[C@H](CC(C)C)NC(=O)[C@](C)(Cc1ccc(O)cc1)NC(=O)[C@@H](CCC(=O)O)NC(=O)[C@@H](NC(=O)[C@H](Cc1ccccc1)NC(=O)[C@H](CCC(=O)O)NC(=O)C(C)(C)NC(=O)[C@H](CCC(N)=O)NC(=O)[C@H](C)NC(=O)[C@H](CCCCNC(=O)COCCOCCNC(=O)COCCOCCNC(=O)CC[C@H](NC(=O)CCCc1ccc(C(C)(C)C)cc1)C(=O)O)NC(=O)[C@H](CCCN)NC(=O)[C@H](CC(=O)O)NC(=O)[C@H](CC(C)C)NC(=O)[C@](C)(CC(C)C)NC(=O)[C@@H](NC(=O)C(C)(C)NC(=O)[C@@H](NC(=O)[C@H](CC(=O)O)NC(=O)[C@H](CO)NC(=O)[C@@H](NC(=O)[C@](C)(Cc1ccccc1)NC(=O)[C@@H](NC(=O)CNC(=O)[C@H](CCC(=O)O)NC(=O)C(C)(C)NC(=O)[C@@H](N)Cc1ccc(O)cc1)[C@@H](C)O)[C@@H](C)O)C(C)C)[C@@H](C)CC)[C@@H](C)CC)C(=O)N[C@@H](CCC(=O)O)C(=O)NCC(=O)NCC(=O)N[C@@H](CCCCNC(=O)COCCOCCNC(=O)COCCOCCNC(=O)CC[C@H](NC(=O)CCCc1ccc(C(C)(C)C)cc1)C(=O)O)C(=O)N[C@@H](CO)C(=O)N[C@@H](CO)C(=O)NCC(=O)N[C@@H](C)C(=O)N1CCC[C@H]1C(=O)N1CCC[C@H]1C(=O)N1CCC[C@H]1C(=O)N[C@@H](CO)C(N)=O [Example 178] was tested. Which Emax (hGIPR; [1]) did it give?
A: Its Emax is 105%.

Q: And the EC50 (hGIPR; cAMP, incubated at 37° C., 0.1% bovine casein (no human serum albumin), read-out: hGIPR EC50, nM (SEM, n))?
A: Its EC50 is 0.11 nM.

Q: And the EC50 (hGCGR; [2])?
A: Its EC50 is over 9950 nM.

Q: With CC[C@H](C)[C@H](NC(=O)[C@H](CC(C)C)NC(=O)[C@](C)(Cc1ccc(O)cc1)NC(=O)[C@@H](CCC(=O)O)NC(=O)[C@@H](NC(=O)[C@H](Cc1ccccc1)NC(=O)[C@H](CCC(=O)O)NC(=O)C(C)(C)NC(=O)[C@H](CCC(N)=O)NC(=O)[C@H](C)NC(=O)[C@H](CCCCNC(=O)COCCOCCNC(=O)COCCOCCNC(=O)CC[C@H](NC(=O)CCCCCCCCCCCCC(=O)O)C(=O)O)NC(=O)[C@H](CCCN)NC(=O)[C@H](CC(=O)O)NC(=O)[C@H](CC(C)C)NC(=O)[C@](C)(CC(C)C)NC(=O)[C@@H](NC(=O)C(C)(C)NC(=O)[C@@H](NC(=O)[C@H](CC(=O)O)NC(=O)[C@H](CO)NC(=O)[C@@H](NC(=O)[C@](C)(Cc1ccccc1)NC(=O)[C@@H](NC(=O)CNC(=O)[C@H](CCC(=O)O)NC(=O)C(C)(C)NC(=O)[C@@H](N)Cc1ccc(O)cc1)[C@@H](C)O)[C@@H](C)O)C(C)C)[C@@H](C)CC)[C@@H](C)CC)C(=O)N[C@@H](CCC(=O)O)C(=O)NCC(=O)NCC(=O)N[C@@H](CCCCNC(=O)COCCOCCNC(=O)COCCOCCNC(=O)CC[C@H](NC(=O)CCCCCCCCCCCCC(=O)O)C(=O)O)C(=O)N[C@@H](CO)C(=O)N[C@@H](CO)C(=O)NCC(=O)N[C@@H](C)C(=O)N1CCC[C@H]1C(=O)N1CCC[C@H]1C(=O)N1CCC[C@H]1C(=O)N[C@@H](CO)C(N)=O [Example 180] as the compound, how does the Emax (hGIPR; [1]) read?
A: Its Emax is 86.8%.

Q: What about the EC50 (hGCGR; [2]) of the same compound?
A: Its EC50 is over 9950 nM.

Q: Which Emax (hGIPR; [3]) does the source give for CC[C@H](C)[C@H](NC(=O)[C@H](CC(C)C)NC(=O)[C@](C)(Cc1ccc(O)cc1)NC(=O)[C@@H](CCC(=O)O)NC(=O)[C@@H](NC(=O)[C@H](Cc1ccccc1)NC(=O)[C@H](CCCCNC(=O)COCCOCCNC(=O)COCCOCCNC(=O)CCCCCCCCCCCCC(=O)O)NC(=O)C(C)(C)NC(=O)[C@H](CCC(N)=O)NC(=O)[C@H](C)NC(=O)[C@H](CCCCNC(=O)COCCOCCNC(=O)COCCOCCNC(=O)CCCCCCCCCCCCC(=O)O)NC(=O)[C@H](CCCN)NC(=O)[C@H](CC(=O)O)NC(=O)[C@H](CC(C)C)NC(=O)[C@](C)(CC(C)C)NC(=O)[C@@H](NC(=O)[C@H](CO)NC(=O)[C@H](Cc1ccc2ccccc2c1)NC(=O)[C@H](CC(=O)O)NC(=O)[C@H](CO)NC(=O)[C@@H](NC(=O)[C@](C)(Cc1ccccc1F)NC(=O)[C@@H](NC(=O)CNC(=O)[C@H](CCC(=O)O)NC(=O)C(C)(C)NC(=O)[C@@H](N)Cc1ccc(O)cc1)[C@@H](C)O)[C@@H](C)O)[C@@H](C)CC)[C@@H](C)CC)C(=O)N[C@@H](CCC(=O)O)C(=O)NCC(=O)NCC(=O)N1CCC[C@H]1C(=O)N[C@@H](CO)C(=O)N[C@@H](CO)C(=O)NCC(=O)N[C@@H](C)C(=O)N1CCC[C@H]1C(=O)N1CCC[C@H]1C(=O)N1CCC[C@H]1C(=O)N[C@@H](CO)C(N)=O [Example 255] here?
A: The Emax was 93.4%.

Q: What about the EC50 (hGIPR; [4]) of the same compound?
A: Its EC50 is 0.0213 nM.

Q: And the EC50 (hGCGR; [5])?
A: Its EC50 is over 9950 nM.

Q: And the EC50 (hGCGR; [6])?
A: The EC50 was over 9950 nM.

Q: CC[C@H](C)[C@H](NC(=O)[C@H](CC(C)C)NC(=O)[C@](C)(Cc1ccc(O)cc1)NC(=O)[C@@H](CCC(=O)O)NC(=O)[C@@H](NC(=O)[C@H](Cc1ccccc1)NC(=O)[C@H](CCC(=O)O)NC(=O)C(C)(C)NC(=O)[C@H](CCC(N)=O)NC(=O)[C@H](C)NC(=O)[C@H](CCCCNC(=O)COCCOCCNC(=O)COCCOCCNC(=O)CC[C@H](NC(=O)CCCCCCCCCCCCC(=O)O)C(=O)O)NC(=O)[C@H](CCCN)NC(=O)[C@H](CC(=O)O)NC(=O)[C@H](CC(C)C)NC(=O)[C@](C)(CC(C)C)NC(=O)[C@@H](NC(=O)[C@H](CO)NC(=O)[C@H](Cc1ccc(OC)cc1)NC(=O)[C@H](CC(=O)O)NC(=O)[C@H](CO)NC(=O)[C@@H](NC(=O)[C@](C)(Cc1ccccc1F)NC(=O)[C@@H](NC(=O)CNC(=O)[C@H](CCC(=O)O)NC(=O)C(C)(C)NC(=O)[C@@H](N)Cc1ccc(O)cc1)[C@@H](C)O)[C@@H](C)O)[C@@H](C)CC)[C@@H](C)CC)C(=O)N[C@@H](CCCCNC(=O)COCCOCCNC(=O)COCCOCCNC(=O)CC[C@H](NC(=O)CCCCCCCCCCCCC(=O)O)C(=O)O)C(=O)NCC(=O)NCC(=O)N1CCC[C@H]1C(=O)N[C@@H](CO)C(=O)N[C@@H](CO)C(=O)NCC(=O)N[C@@H](C)C(=O)N1CCC[C@H]1C(=O)N1CCC[C@H]1C(=O)N1CCC[C@H]1C(=O)N[C@@H](CO)C(N)=O [Example 260] was tested. Which EC50 (hGIPR; 0.1% bovine casein and 1.0% human serum albumin, 37° C., read-out: hGIPR EC50, nM (SEM, n)) did it give?
A: Its EC50 is 3.27 nM.

Q: And the Emax (hGIPR; [3])?
A: The Emax was 83%.

Q: And the Emax (hGIPR; HEK293, cAMP, 37° C., 0.1% bovine casein, percent of maximal response to GIP(1-42)NH2, arithmetic mean, read-out: hGIPR Emax, % ± SEM)?
A: The Emax was 113%.

Q: What about the EC50 (hGIPR; [4]) of the same compound?
A: Its EC50 is 0.0239 nM.

Q: And the EC50 (hGCGR; [5])?
A: Its EC50 is over 9950 nM.

Q: What about the EC50 (hGCGR; [6]) of the same compound?
A: The EC50 was over 9950 nM.

Q: What does the source list for CC[C@H](C)[C@H](NC(=O)[C@H](CCCN)NC(=O)[C@H](CC(=O)O)NC(=O)[C@H](CC(C)C)NC(=O)[C@](C)(CC(C)C)NC(=O)[C@@H](NC(=O)[C@H](CO)NC(=O)[C@H](Cc1ccncc1)NC(=O)[C@H](CC(=O)O)NC(=O)[C@H](CO)NC(=O)[C@@H](NC(=O)[C@](C)(Cc1ccccc1F)NC(=O)[C@@H](NC(=O)CNC(=O)[C@H](CCC(=O)O)NC(=O)C(C)(C)NC(=O)[C@@H](N)Cc1ccc(O)cc1)[C@@H](C)O)[C@@H](C)O)[C@@H](C)CC)C(=O)N[C@@H](C)C(=O)N[C@@H](CCC(N)=O)C(=O)NC(C)(C)C(=O)N[C@@H](CCCCNC(=O)COCCOCCNC(=O)COCCOCCNC(=O)CC[C@H](NC(=O)CCCCCCCCCOc1ccc(C(=O)O)cc1)C(=O)O)C(=O)N[C@@H](Cc1ccccc1)C(=O)N[C@H](C(=O)N[C@H](CCC(=O)O)C(=O)N[C@@](C)(Cc1ccc(O)cc1)C(=O)N[C@@H](CC(C)C)C(=O)N[C@H](C(=O)N[C@@H](CCC(=O)O)C(=O)NCC(=O)NCC(=O)N1CCC[C@H]1C(=O)N[C@@H](CO)C(=O)N[C@@H](CO)C(=O)NCC(=O)N[C@@H](C)C(=O)N1CCC[C@H]1C(=O)N1CCC[C@H]1C(=O)N1CCC[C@H]1C(=O)N[C@@H](CO)C(=O)N[C@@H](CCCCNC(=O)COCCOCCNC(=O)COCCOCCNC(=O)CC[C@H](NC(=O)CCCCCCCCCOc1ccc(C(=O)O)cc1)C(=O)O)C(N)=O)[C@@H](C)CC)[C@@H](C)CC [Example 276]?
A: Emax (hGIPR; HEK293, read-out: hGIPR Emax, % ± SEM, 0.1% bovine casein and 1.0% human serum albumin, 37° C., percent of maximal response to GIP(1-42)NH2): 91.4%; EC50 (hGIPR; hGIPR EC50, nM (SEM, n), cAMP, 37° C., 0.1% bovine casein (no human serum albumin)): 0.0134 nM; EC50 (hGCGR; hGCGR EC50, nM (SEM, n), 0.1% bovine casein and 1.0% human serum albumin, 37° C.): > 9950 nM; EC50 (hGCGR; hGCGR EC50, nM (SEM, n), cAMP, 37° C., 0.1% bovine casein (no human serum albumin)): > 9950 nM
